Data from patent publication US20180340012A1, “METHODS AND CO[…] TO IMPROVING PROPERTIES OF PHARMACOLOGICAL AGENTS TARGETING NERVOUS SYSTEM” (University of Utah Research Foundation, priority 2006, published 2018).
Entries after “also recorded” stand apart in the source; their conditions may differ. Read-outs that look alike come from different tables or passages of the source. Square brackets hold non-standard residues; d marks the D form. Ends that are not written are not given here. Peptide text beside a SMILES is read from it. * marks the point of attachment. Fmoc = O=C(OCC1c2ccccc2-c2ccccc21)*; Palmitoyl = CCCCCCCCCCCCCCCC(=O)*; Cha = N[C@@H](CC1CCCCC1)C(=O)O; AMC = Cc1cc(=O)oc2cc(N*)ccc12; Ahx = NCCCCCC(=O)O; Sar = CNCC(=O)O

How the values were obtained:
galanin receptors = settings: truncation of GAL(1-16) fragment; read-out: KD towards galanin receptors; cited from earlier work
hGalR2 = biological target: T1, hGalR2 (Homo sapiens, UniProt O43603); settings: cited from earlier work
T1 sequence (O43603 1-387): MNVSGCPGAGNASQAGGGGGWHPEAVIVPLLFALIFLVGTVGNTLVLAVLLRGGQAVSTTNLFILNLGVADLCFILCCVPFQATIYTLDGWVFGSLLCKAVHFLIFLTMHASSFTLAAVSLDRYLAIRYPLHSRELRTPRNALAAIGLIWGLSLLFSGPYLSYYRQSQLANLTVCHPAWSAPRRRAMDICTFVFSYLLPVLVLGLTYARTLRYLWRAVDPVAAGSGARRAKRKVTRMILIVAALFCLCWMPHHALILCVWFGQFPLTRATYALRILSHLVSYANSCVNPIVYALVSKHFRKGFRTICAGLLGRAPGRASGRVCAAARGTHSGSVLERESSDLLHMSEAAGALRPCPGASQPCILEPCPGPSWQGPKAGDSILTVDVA

6 Hz limbic seizures = assay: 6 Hz limbic (psychomotor) seizure test; type: in vivo, CF-1 mice; settings: for % Protection at 1 hour / % Protection at 2 hours / % Protection at 4 hours / % Protection at 1, 2 and 4 hours (result in words): 4 mg/kg; for % Protection at 1 hour / % Protection at 2 hours / % Protection at 4 hours / ED50 in the 6 Hz model / dose in parentheses in Table 14 (ED50) / % Protection at 1, 2 and 4 hours (result in words): i.p.; for % Protection at 1 hour: model not printed at tables, ED50s of same analogs called 6 Hz model; for dose in parentheses in Table 14 (ED50): not labelled in table
From the text: Mice not displaying limbic seizures were considered protected.

[1] = Toxicity (motor impairment) noted in the SAR screen; type: in vivo, mice; settings: 4 mg/kg, i.p.
From the text: Minimal toxicity will be identified in mice by the rotarod procedure (Dunham and Miya, 1957). When a mouse is placed on a 1-inch knurled rod that rotates at a speed of 6 r.p.m., the animal can maintain its equilibrium for long periods of time. The animal is considered toxic if it falls off this rotating rod three times during a 1-minute period.
SAR studies have been carried out in an effort to better understand structural determinants of its activity following systemic administration. […] Presence of the Lys-palm residue was insufficient to produce any observable anticonvulsant activity.

[2] = system: formalin-induced paw licking; assay: Mouse formalin test; type: in vivo; settings: for Active at (flat phase II): mouse formalin assay of inflammatory pain
Protocol: An injection of 0.5% formalin is made into the planter region of a mouse right hind paw. This elicits a distinct biphasic behavioral profile characterized by the mouse licking the affected paw. Immediately following the injection the mouse licks the paw for about 10 minutes. This is phase 1 (acute) and is followed by a brief latent period where there is little behavioral activity. A more prolonged period of about 20 to 30 minutes of paw licking ensues which constitutes phase 2 (inflammatory).
Prior to the administration of the active peptide, drug or vehicle each mouse undergoes a 15-minute conditioning period in one of several 6″ tall plexiglass observation tubes (4″ diameter) that are placed in front of a mirror. […] One hour after treatment, formalin was injected sub-dermally (20 μl; 27 gauge needle) into the plantar surface of the right hind foot. The bevel of the needle is placed facing down toward the skin surface. Following the injection of the formalin each animal is observed for first 2 minutes of each 5 minute epoch for a total of 45 minutes. The cumulative length of licking for each 2 minute time period was measured. An animal receiving the requisite volume of vehicle was alternated with each mouse given GAL-BBB2, Gal 1-16, or gabapentin. Animals were euthanized following the conclusion of the experiment.
Area under the curve (AUC) determination was made using the GraphPad Prism Version 3.03. Total AUC is calculated for both the test and control groups for both the acute and inflammatory phases. The AUC for individual animals for each phase is also calculated and converted to percentage of total AUC of control. The average percentages and SEM for both the drug treated and control were calculated and tested for significant difference.

[3] = system: seizures (6 Hz limbic seizure model); settings: 4 mg/kg, i.p.
sound-induced seizures = assay: Frings audiogenic seizure-susceptible mouse model; type: in vivo
Protocol: The two modified galanin analogs (GAL-BBB1 and GAL-BBB2) were administered i.p. to a group of Frings audiogenic seizure susceptible mice in a dose of 4 mg/kg. At various times after administration (i.e., 15, 30, 60, 120, and 240 min) each mouse was placed into a cylindrical test chamber fitted with an audio transducer and challenged with a high-intensity sound stimulus (110 dB, 11 KHz for 20 sec). Animals not displaying tonic hind-limb extension were considered protected. […] In a subsequent study, anticonvulsant efficacy was quantitated at the time to peak effect (i.e., 1 h) in a dose-response study.
The ability of individual modified analogs to prevent seizures induced by sound in the AGS-susceptible Frings mouse model can be assessed at the time of peak effect (White et al., 1992). For this test, individual mice are placed into a plexiglass cylinder (diameter, 15 cm; height, 18 cm) fitted with an audio transducer (Model AS-ZC; FET Research and Development, Salt Lake City, Utah), and exposed to a sound stimulus of 110 decibels (11 KHz) delivered for 20 seconds. Sound-induced seizures are characterized by wild running followed by loss of righting reflex with forelimb and hindlimb tonic extension. Mice not displaying hindlimb tonic extension are considered protected.
At various times after administration (i.e., 15, 30, 60, 120, and 240 min) each mouse was placed into a cylindrical test chamber fitted with an audio transducer and challenged with a high-intensity sound stimulus (110 dB, 11 KHz for 20 sec).

hGalR3 = biological target: T2, hGalR3 (Homo sapiens, UniProt O60755); settings: Table 18; compiled from literature; read-out: Affinity, KD hGalR3; cited from earlier work
T2 sequence (O60755 1-368): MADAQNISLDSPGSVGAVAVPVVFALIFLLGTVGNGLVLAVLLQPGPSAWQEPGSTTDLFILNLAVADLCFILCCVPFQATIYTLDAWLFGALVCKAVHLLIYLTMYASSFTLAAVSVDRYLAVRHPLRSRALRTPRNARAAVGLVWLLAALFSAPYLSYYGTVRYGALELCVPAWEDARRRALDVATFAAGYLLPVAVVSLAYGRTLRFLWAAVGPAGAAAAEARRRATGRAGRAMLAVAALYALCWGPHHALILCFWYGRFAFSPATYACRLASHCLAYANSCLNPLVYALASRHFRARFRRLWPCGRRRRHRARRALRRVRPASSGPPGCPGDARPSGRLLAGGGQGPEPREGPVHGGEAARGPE

[4] = Table 2, reference ligands, same values as Table 18, read-out: affinity toward galanin receptors, GalR2
[5] = Table 18, compiled from literature, read-out: Affinity, KD hGalR2

CC(C)C[C@H](NC(=O)[C@H](CC(C)C)NC(=O)[C@H](Cc1ccc(O)cc1)NC(=O)CNC(=O)[C@H](C)NC(=O)[C@H](CO)NC(=O)[C@H](CC(N)=O)NC(=O)[C@H](CC(C)C)NC(=O)[C@@H](NC(=O)[C@H](Cc1c[nH]c2ccccc12)NC(=O)CN)[C@@H](C)O)C(=O)NCC(=O)O [Fragment 1-12]
Kd (galanin receptors): 3000 nM

CC(C)C[C@H](NC(=O)[C@H](CC(C)C)NC(=O)[C@H](Cc1ccc(O)cc1)NC(=O)CNC(=O)[C@H](C)NC(=O)[C@H](CO)NC(=O)[C@H](CC(N)=O)NC(=O)[C@H](CC(C)C)NC(=O)[C@@H](NC(=O)[C@H](Cc1c[nH]c2ccccc12)NC(=O)CN)[C@@H](C)O)C(=O)NCC(=O)N1CCC[C@H]1C(=O)N[C@@H](Cc1c[nH]cn1)C(=O)O [Fragment 1-14]
Kd (galanin receptors): 150 nM

Cc1cc(=O)oc2cc(NC(=O)[C@H](CCCCN)NC(=O)[C@H](CC3CCCCC3)NC(=O)OCC3c4ccccc4-c4ccccc43)ccc12 [Galnon] (Fmoc-[Cha]-Lys-{AMC})
Kd (hGalR2; [4]): 24000 nM
Kd (hGalR2; [5]): 24000 nM

CC[C@@H](C(N)=O)N1CCCC1=O [Levetiracetam, reference compound]
maximum protection against 6 Hz limbic seizures (6 Hz limbic seizures; 6 Hz (44 mA), 1000 mg/kg, alone): ≤ 50%

CNCC(=O)N[C@@H](Cc1c[nH]c2ccccc12)C(=O)N[C@H](C(=O)N[C@@H](CC(C)C)C(=O)N[C@@H](CC(N)=O)C(=O)N[C@@H](CO)C(=O)N[C@@H](C)C(=O)NCC(=O)N[C@@H](Cc1ccc(O)cc1)C(=O)N[C@@H](CC(C)C)C(=O)N[C@@H](CC(C)C)C(=O)NCC(=O)N1CCC[C@H]1C(=O)N[C@@H](CCCCN)C(=O)N[C@@H](CCCCN)C(=O)N[C@@H](CCCCN)C(=O)N[C@@H](CCCCN)C(N)=O)[C@@H](C)O [NAX 1105-2]
toxicity (motor impairment) [1]: toxicity (motor impairment); also recorded: toxic
% Protection at 1 hour (6 Hz limbic seizures): 30%
% Protection at 2 hours (6 Hz limbic seizures): 0%
% Protection at 4 hours (6 Hz limbic seizures): 0%
ED50 in the 6 Hz model (6 Hz limbic seizures): 3.8 mg/kg
dose in parentheses in Table 14 (ED50) (6 Hz limbic seizures): 3.7 mg/kg

CCCCCCCCCCCCCCCC(=O)NCCCC[C@H](NC(=O)[C@H](CCCCN)NC(=O)[C@H](CCCCN)NC(=O)[C@H](CCCCN)NC(=O)[C@H](CCCCN)NC(=O)[C@H](CC(C)C)NC(=O)[C@H](CC(C)C)NC(=O)[C@H](Cc1ccc(O)cc1)NC(=O)CNC(=O)[C@H](C)NC(=O)[C@H](CO)NC(=O)[C@H](CC(N)=O)NC(=O)[C@H](CC(C)C)NC(=O)[C@@H](NC(=O)[C@H](Cc1c[nH]c2ccccc12)NC(=O)CNC)[C@@H](C)O)C(=O)N[C@@H](CCCCN)C(N)=O [NAX 1205-4] (H-[Sar]WTLNSAGYLLKKKKK(Palmitoyl)K-NH2)
toxicity (motor impairment) [1]: toxic

(Sar)WTLNSAGY(Ahx)KK(Lys-P)K [NAX 306-4]
activity in second response phase of inflammatory pain assay ([2]; 2.95 mg/kg): very active
Active at (flat phase II) [2]: 2.9 mg/kg (“flat phase II”)
% Protection at 1 hour (6 Hz limbic seizures): 50%
% Protection at 2 hours (6 Hz limbic seizures): 0%
% Protection at 4 hours (6 Hz limbic seizures): 0%
ED50 in the 6 Hz model (6 Hz limbic seizures): 2.95 mg/kg
dose in parentheses in Table 14 (ED50) (6 Hz limbic seizures): 2.95 mg/kg

(Sar)WTLNSAGYKK(Lys-P)K [NAX 306-3]
Active at (flat phase II) [2]: 2.7 mg/kg (“flat phase II”)

(Sar)WTLNSAGYLLGPDKDK(Lys-P)DK (XWTLNSAGYLLGPXXXX; N-terminal Sar; C-terminal (Lys-P)DK; MOD_RES 1 Xaa = MeGly; VARIANT 14, 15, 17 Xaa = D-Lys; MOD_RES 16 Xaa = Lys-palm) [NAX 1205-2]
% Protection at 1 hour (6 Hz limbic seizures): 100%
% Protection at 2 hours (6 Hz limbic seizures): 50%
% Protection at 4 hours (6 Hz limbic seizures): 75%
ED50 in the 6 Hz model (6 Hz limbic seizures): 1.2 mg/kg
dose in parentheses in Table 14 (ED50) (6 Hz limbic seizures): 1.2 mg/kg

(Sar)WTLNSAGYLLGPHA(Lys-P) [306-5]
% Protection at 1, 2 and 4 hours (result in words) (6 Hz limbic seizures): Not active

(Sar)WTLNSAGYLLGPRR(Lys-P)R [NAX 1205-3]
% Protection at 1 hour (6 Hz limbic seizures): 100%
% Protection at 2 hours (6 Hz limbic seizures): 75%
% Protection at 4 hours (6 Hz limbic seizures): 0%

DPhe-Cys-Phe-DTrp-Lys-Thr-Cys-Thr-NH2 [DPhe-Cys-Phe-DTrp-Lys-Thr-Cys-Thr-N2, reference compound]
% Protection at 30 min [3]: 50%

GWTLNSAGY [Fragment 1-9]
Kd (galanin receptors): 100000 nM

GWTLNSAGYL [Fragment 1-10]
Kd (galanin receptors): 25000 nM

GWTLNSAGYLLGPHAV [Gal(1-16), reference compound]
anticonvulsant activity (sound-induced seizures; 20 mg/kg i.p.): inactive
Kd (hGalR3): 6.5 nM
activity in formalin test ([2]; 20 mg/kg i.p.): inactive
% Protection at 1, 2 and 4 hours (result in words) (6 Hz limbic seizures): Not active
Kd (hGalR2; [4]): 8.3 nM
Kd (hGalR2; [5]): 8.3 nM

Lys-Lys-Lys(palm)-Lys-Ahx-DPhe-Cys-Phe-DTrp-Lys-Thr-Cys-Thr-NH2
% Protection at 30 min [3]: 100%

Sar-Trp-Thr-Leu-Asn-Ser-Ala-Gly-Tyr-Leu-Leu-Gly-Pro-His-(Lys-palm)-Tle-NH2 [GAL-BBB1]
anticonvulsant activity (sound-induced seizures; 4 mg/kg i.p., 15-240 min, also higher dose of 12 mg/kg): not active at any time point tested

WAGGDFSGE [DSIP, reference compound]
activity against 6 Hz (22 mA) limbic seizures (6 Hz limbic seizures; administered directly into the ventricular space, 22 mA): effective
% Protection at 30 min [3]: 0%

WTLNSAGYLLGPKK(Lys-P)K (not fully specified (C-terminus)) [NAX 1205-1]
% Protection at 1 hour (6 Hz limbic seizures): 50%
% Protection at 2 hours (6 Hz limbic seizures): 50%
% Protection at 4 hours (6 Hz limbic seizures): 0%
ED50 in the 6 Hz model (6 Hz limbic seizures): 5.7 mg/kg
dose in parentheses in Table 14 (ED50) (6 Hz limbic seizures): 5.7 mg/kg

[Ahx]GGWAGGDFSGE
% Protection at 30 min [3]: 50%
% Protection after 2 hours ([3]; 2 hours): (100% after
